How the values were obtained:
[1] = Osmolality of sugammadex solution in water (OSMOMAT 3000, freezing point comparison); format: physicochemical; conditions: concentration 108 mg/ml
Protocol: Osmolality was measured using OSMOMAT 3000 (Gonotec), a solution (concentration 108 mg/ml) of sugammadex in water was used. The osmolality of the solution was obtained by comparison of freezing point of the sugammadex solution and the freezing point of water.

[2] = Sodium content of sugammadex samples by potentiometric titration with HClO4; format: physicochemical; conditions: sugammadex solution in glacial acetic acid, 3 mg/ml, titrated with 0.1 M HClO4
Protocol: The sodium content was obtained by titration of sugammadex solution in glacial acetic acid (concentration 3 mg/ml) using 0.1 M solution of HClO4 using Titrator 794 DMS Titrino, Metrohm. The endpoint (VEQ) was determined potentiometrically.

Row | Substance | Osmolality [1] | Sodium content % (wt/wt) based on amount of sugammadex [2]
1 | 6A,6B,6C,6D,6E,6F,6G,6H-Octakis-S-(2-carboxyethyl)-6A,6B,6C,6D,6E,6F,6G-octasulfanyl-gamma-cyclodextrin octasodium salt [Example 5] | 335 mOsmol/kg | 8.5 % (wt/wt)
2 | 6A,6B,6C,6D,6E,6F,6G,6H-Octakis-S-(2-carboxyethyl)-6A,6B,6C,6D,6E,6F,6G-octasulfanyl-gamma-cyclodextrin octasodium salt [Example 4 of WO2017144734 application, reference compound] | 986 mOsmol/kg | 11.14 % (wt/wt)
3 | 6A,6B,6C,6D,6E,6F,6G,6H-Octakis-S-(2-carboxyethyl)-6A,6B,6C,6D,6E,6F,6G-octasulfanyl-gamma-cyclodextrin octasodium salt [Example 2] | 320 mOsmol/kg | 8.5 % (wt/wt)
4 | 6A,6B,6C,6D,6E,6F,6G,6H-Octakis-S-(2-carboxyethyl)-6A,6B,6C,6D,6E,6F,6G-octasulfanyl-gamma-cyclodextrin octasodium salt [Example 1] | 322 mOsmol/kg | 8.5 % (wt/wt)
5 | 6A,6B,6C,6D,6E,6F,6G,6H-Octakis-S-(2-carboxyethyl)-6A,6B,6C,6D,6E,6F,6G-octasulfanyl-gamma-cyclodextrin octasodium salt [Example 6] | 348 mOsmol/kg | 8.5 % (wt/wt)
6 | 6A,6B,6C,6D,6E,6F,6G,6H-Octakis-S-(2-carboxyethyl)-6A,6B,6C,6D,6E,6F,6G-octasulfanyl-gamma-cyclodextrin octasodium salt [Example 3] | 349 mOsmol/kg | 8.5 % (wt/wt)
7 | 6A,6B,6C,6D,6E,6F,6G,6H-Octakis-S-(2-carboxyethyl)-6A,6B,6C,6D,6E,6F,6G-octasulfanyl-gamma-cyclodextrin octasodium salt [Example 4] | 346 mOsmol/kg | 8.5 % (wt/wt)
